Measurements reported in patent publication US11730712B2, “Functionalized long-chain hydrocarbon mono- and di-carboxylic acids and derivatives thereof, and their use for the prevention or treatment of disease” (ESPERVITA THERAPEUTICS, INC., priority 2021, dated 2023).
Several values for one entry are separate records, joined by “and”; a condition that tells them apart may be missing. Equal entries are not always repeated.

What was measured:
Assay type in all cases: biochemical
MAPKAPK2 = MAPKAPK2 (Homo sapiens, UniProt P49137); experiment: Kinase assay, wild type kinases; conditions: compound 10 μM, 10 μM ATP, duplicate (Data 1, Data 2), >100 activation, <100 inhibition; for remaining activity at 10 µM: read-out: % Enzyme Activity (relative to DMSO controls), MAPKAPK2
TNIK = TNIK (Homo sapiens, UniProt Q9UKE5); experiment: Kinase assay, wild type kinases; conditions: compound 10 μM, 10 μM ATP, duplicate (Data 1, Data 2), >100 activation, <100 inhibition; for remaining activity at 10 µM: read-out: % Enzyme Activity (relative to DMSO controls), TNIK
GSK3b = GSK3b (Homo sapiens, UniProt P49841); experiment: Kinase assay, wild type kinases; conditions: compound 10 μM, 10 μM ATP, duplicate (Data 1, Data 2), >100 activation, <100 inhibition; for remaining activity at 10 µM: read-out: % Enzyme Activity (relative to DMSO controls), GSK3b
Aurora A = biological target: T1, Aurora A (Homo sapiens, UniProt O14965); experiment: Kinase assay, wild type kinases; conditions: compound 10 μM, 10 μM ATP, duplicate (Data 1, Data 2), >100 activation, <100 inhibition; for remaining activity at 10 µM: read-out: % Enzyme Activity (relative to DMSO controls), Aurora A
T1 sequence (O14965 1-403): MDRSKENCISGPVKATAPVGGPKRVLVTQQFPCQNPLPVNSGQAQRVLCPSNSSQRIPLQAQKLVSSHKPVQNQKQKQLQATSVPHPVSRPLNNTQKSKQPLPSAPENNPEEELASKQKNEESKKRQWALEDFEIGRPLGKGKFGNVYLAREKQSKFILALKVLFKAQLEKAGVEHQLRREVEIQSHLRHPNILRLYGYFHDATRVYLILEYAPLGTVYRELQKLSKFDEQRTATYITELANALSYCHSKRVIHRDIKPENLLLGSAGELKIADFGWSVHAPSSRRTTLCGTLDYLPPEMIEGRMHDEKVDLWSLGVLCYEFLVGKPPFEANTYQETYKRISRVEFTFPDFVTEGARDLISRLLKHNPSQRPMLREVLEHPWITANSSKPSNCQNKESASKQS

NEK2 = biological target: T2, NEK2 (Homo sapiens, UniProt P51955); experiment: Kinase assay, wild type kinases; conditions: compound 10 μM, 10 μM ATP, duplicate (Data 1, Data 2), >100 activation, <100 inhibition; for remaining activity at 10 µM: read-out: % Enzyme Activity (relative to DMSO controls), NEK2
T2 sequence (P51955 1-445): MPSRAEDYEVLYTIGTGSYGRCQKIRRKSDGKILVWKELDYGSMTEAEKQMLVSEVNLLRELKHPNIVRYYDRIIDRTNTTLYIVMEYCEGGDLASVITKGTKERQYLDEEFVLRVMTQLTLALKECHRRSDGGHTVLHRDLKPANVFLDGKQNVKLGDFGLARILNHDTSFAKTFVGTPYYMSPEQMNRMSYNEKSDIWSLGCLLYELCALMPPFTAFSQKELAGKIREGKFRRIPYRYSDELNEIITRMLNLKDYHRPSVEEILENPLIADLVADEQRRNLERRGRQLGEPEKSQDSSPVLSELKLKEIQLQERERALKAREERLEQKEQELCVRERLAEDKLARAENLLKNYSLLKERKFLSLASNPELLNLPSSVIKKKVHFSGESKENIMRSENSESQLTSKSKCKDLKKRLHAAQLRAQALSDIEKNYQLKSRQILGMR

MLCK/MYLK = MLCK/MYLK (Homo sapiens, UniProt Q15746); experiment: Kinase assay, wild type kinases; conditions: compound 10 μM, 10 μM ATP, duplicate (Data 1, Data 2), >100 activation, <100 inhibition; for remaining activity at 10 µM: read-out: % Enzyme Activity (relative to DMSO controls), MLCK/MYLK
Human ACC1 = biological target: T3, Human ACC1 (Homo sapiens, UniProt Q13085); experiment: ACC1 enzymatic assay (ADP-Glo); conditions: recombinant human ACC1 5 nM, 10 μM ATP, 10 μM acetyl CoA; Run 1-3; read-out: Compound IC50 (M) ACC1
T3 construct: FLAG (C); His (C); purchased BPS Biosciences 50202; host or cells: Baculovirus infected Sf9 cells
Description: Human ACC1 (Cat#50202 Lot #120830) and ACC2 (Cat #50201 Lot #160217) were obtained from BPS Biosciences, San Diego, Calif. 92121. Human ACC1 had C-terminal flag and His-tags with a MW of 270 KDa after purification from Baculovirus infected Sf9 cell expression system and came as a solution in 50 mM Tris-HCl, pH 8.0, 500 mM NaCl, 10% glycerol, 1 mM DTT, 100 μg/ml FLAG peptide with 70% purity. The stock concentration was 0.25 mg/ml corresponding to 0.926 μM. Human ACC2 was also purified from Baculovirus infected Sf9 expression system. […] The stock concentration was 0.1 mg/ml corresponding to 0.36 μM. The assay buffer for measuring the activity of ACC contained: 30 mM HEPES (pH 7.4), 2 mM MgCl2, 0.01% Brij35, 2 mM DTT, 1% DMSO (solvent for compound). For ACC1 and ACC2 assays, the following concentrations of substrate and cofactors were used: 12 mM NaHCO3, 10 μM acetyl CoA, 10 μM ATP, and 2 mM K-citrate. The recombinant human enzyme was used at 5 nM for ACC1 and 1 nM for ACC2. In brief, enzyme alone in the above buffer without substrate was used for background. All test materials were dissolved in 100% DMSO using acoustic technology (Echo550). The prepared solution was preincubated for 15 min followed by the addition of 5 μL/well of ADP standard. ATP was then added to start the reaction. The assay contents were spun and briefly shaken followed by incubation at room temperature for 1 h. At the end of completion of assay, 5 μL of ADP-Glo was added to each well to stop the reaction. The contents were mixed, spun and incubated at room temperature for 40 min followed by the addition of 10 μL/well of ADP detection reagent. The contents were spun, mixed and covered with plastic to measure luminescence. […] The light generated, measured in a luminometer, correlates to the amount of ADP generated in the ACC assay, which is indicative of ACC activity.
The enzyme concentrations for ACC1 and ACC2 were 5 nM and 1 nM, respectively.
Data represent nM or μM ADP produced, % Activity (relative to no inhibitor controls), and curve fits were performed by GraphPad Prism software. The IC50 concentration-response curves were generated for both the ACC1 and ACC2 assays using recombinant human ACC.

Chain of TNIK (Q9UKE5 whole entry, species assumed): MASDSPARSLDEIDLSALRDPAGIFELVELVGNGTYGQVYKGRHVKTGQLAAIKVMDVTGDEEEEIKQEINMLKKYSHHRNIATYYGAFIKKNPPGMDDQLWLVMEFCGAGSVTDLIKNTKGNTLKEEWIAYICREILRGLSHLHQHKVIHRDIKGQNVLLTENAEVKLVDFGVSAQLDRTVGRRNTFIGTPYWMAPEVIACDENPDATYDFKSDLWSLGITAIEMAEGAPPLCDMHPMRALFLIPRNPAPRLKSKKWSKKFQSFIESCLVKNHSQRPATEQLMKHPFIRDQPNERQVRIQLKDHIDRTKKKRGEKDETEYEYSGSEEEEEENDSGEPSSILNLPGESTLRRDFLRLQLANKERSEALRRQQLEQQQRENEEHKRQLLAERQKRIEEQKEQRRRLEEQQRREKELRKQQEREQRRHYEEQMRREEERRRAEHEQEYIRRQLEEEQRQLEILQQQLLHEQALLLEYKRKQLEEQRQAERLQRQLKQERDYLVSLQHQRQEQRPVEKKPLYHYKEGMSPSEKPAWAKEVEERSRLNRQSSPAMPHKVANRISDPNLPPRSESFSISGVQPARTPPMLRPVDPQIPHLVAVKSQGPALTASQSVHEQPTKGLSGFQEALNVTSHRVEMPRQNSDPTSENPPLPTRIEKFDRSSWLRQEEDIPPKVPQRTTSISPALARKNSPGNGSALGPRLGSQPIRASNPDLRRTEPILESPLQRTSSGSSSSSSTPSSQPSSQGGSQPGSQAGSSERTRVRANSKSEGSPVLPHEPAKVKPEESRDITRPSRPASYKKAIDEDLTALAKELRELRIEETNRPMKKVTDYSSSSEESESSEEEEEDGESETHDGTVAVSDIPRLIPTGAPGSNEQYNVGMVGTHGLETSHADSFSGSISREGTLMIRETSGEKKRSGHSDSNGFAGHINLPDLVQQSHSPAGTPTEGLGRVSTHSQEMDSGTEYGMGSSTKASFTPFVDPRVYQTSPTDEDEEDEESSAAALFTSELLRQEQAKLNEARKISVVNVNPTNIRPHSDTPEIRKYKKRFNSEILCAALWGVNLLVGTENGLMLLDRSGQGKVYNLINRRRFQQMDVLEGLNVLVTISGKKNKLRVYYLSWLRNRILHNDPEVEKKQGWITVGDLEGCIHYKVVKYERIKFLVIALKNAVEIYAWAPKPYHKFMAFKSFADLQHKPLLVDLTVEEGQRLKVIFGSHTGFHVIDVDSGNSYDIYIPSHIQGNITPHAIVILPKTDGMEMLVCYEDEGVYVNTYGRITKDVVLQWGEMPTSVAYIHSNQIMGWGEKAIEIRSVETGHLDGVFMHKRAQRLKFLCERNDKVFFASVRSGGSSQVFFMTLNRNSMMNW
Chain of GSK3b (P49841 whole entry, species assumed): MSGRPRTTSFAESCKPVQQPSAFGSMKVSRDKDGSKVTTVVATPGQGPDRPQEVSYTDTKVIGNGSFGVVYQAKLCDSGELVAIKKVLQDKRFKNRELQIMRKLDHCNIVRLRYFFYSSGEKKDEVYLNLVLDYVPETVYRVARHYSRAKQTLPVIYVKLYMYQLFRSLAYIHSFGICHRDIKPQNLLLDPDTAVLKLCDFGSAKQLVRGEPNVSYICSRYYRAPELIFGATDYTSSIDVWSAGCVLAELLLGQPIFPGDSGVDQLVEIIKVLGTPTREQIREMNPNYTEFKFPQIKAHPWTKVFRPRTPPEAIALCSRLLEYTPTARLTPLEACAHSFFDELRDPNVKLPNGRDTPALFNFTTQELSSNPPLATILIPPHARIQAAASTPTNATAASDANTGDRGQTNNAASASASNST
Chain of MAPKAPK2 (P49137 whole entry, species assumed): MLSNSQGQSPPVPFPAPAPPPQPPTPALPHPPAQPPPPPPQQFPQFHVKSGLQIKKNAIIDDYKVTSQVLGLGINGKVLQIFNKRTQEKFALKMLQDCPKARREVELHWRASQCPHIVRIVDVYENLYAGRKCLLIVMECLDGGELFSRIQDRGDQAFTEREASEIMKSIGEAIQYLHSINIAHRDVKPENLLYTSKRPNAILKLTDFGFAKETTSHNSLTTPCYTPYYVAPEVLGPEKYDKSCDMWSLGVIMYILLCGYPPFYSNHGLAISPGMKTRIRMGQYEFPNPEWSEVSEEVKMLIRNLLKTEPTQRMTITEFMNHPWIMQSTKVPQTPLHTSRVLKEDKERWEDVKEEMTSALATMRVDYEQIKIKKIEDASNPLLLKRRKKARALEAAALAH

| Structure (SMILES) | remaining activity at 10 µM (MAPKAPK2) | remaining activity at 10 µM (TNIK) | remaining activity at 10 µM (GSK3b) | remaining activity at 10 µM (Aurora A) | remaining activity at 10 µM (NEK2) | remaining activity at 10 µM (MLCK/MYLK) | IC50 (Human ACC1) | % Enzyme Activity (relative to DMSO controls), MAPKAPK2 (MAPKAPK2) | % Enzyme Activity (relative to DMSO controls), TNIK (TNIK) | % Enzyme Activity (relative to DMSO controls), GSK3b (GSK3b) | % Enzyme Activity (relative to DMSO controls), Aurora A (Aurora A) | % Enzyme Activity (relative to DMSO controls), NEK2 (NEK2) | % Enzyme Activity (relative to DMSO controls), MLCK/MYLK (MLCK/MYLK) |
| --- | --- | --- | --- | --- | --- | --- | --- | --- | --- | --- | --- | --- | --- |
| CC(C)(CCCCc1ccc(CCCCC(C)(C)C(=O)O)cc1)C(=O)O [Compound I-1, 6-[4-(5-carboxy-5-methylhexyl)-phenyl]-2,2-dimethylhexanoic acid] | 93.1% | 106% | 83.2% | 89.1% | 90.3% | 110% | – | – | – | – | – | – | – |
| CC(C)(CCCCc1cccc(CCCCC(C)(C)C(=O)O)c1)C(=O)O [Compound I-32, 6-[3-(5-carboxy-5-methylhexyl)-phenyl]-2,2-dimethylhexanoic acid] | 91.7% | 101% | 78% | 94.9% | 87.8% | 106% | 0.000284 M and 0.000272 M and 0.00022 M | – | – | – | – | – | – |
| CC(C)(CCCCc1ccc(CCCCC(C)(C)C(=O)SCCNC(=O)CCNC(=O)[C@H](O)C(C)(C)COP(=O)(O)OP(=O)(O)OC[C@H]2O[C@@H](n3cnc4c(N)ncnc43)[C@H](O)[C@@H]2OP(=O)(O)O)cc1)C(=O)O [Compound I-1-CoA, 6-[4-(5-carboxy-5-methylhexyl)-phenyl]-2,2-dimethylhexanoic acid Coenzyme A ester] | – | – | – | – | – | – | 1.63e-05 M and 1.33e-05 M and 1.25e-05 M | 85.04% and 84.66% | 39.22% and 36.50% | 63.29% and 62.44% | 12.44% and 12.42% | 0.89% and 0.63% | 2.06% and −0.71% |
| CC(C)(CCCCc1cccc(CCCCC(C)(C)C(=O)SCCNC(=O)CCNC(=O)[C@H](O)C(C)(C)COP(=O)(O)OP(=O)(O)OC[C@H]2O[C@@H](n3cnc4c(N)ncnc43)[C@H](O)[C@@H]2OP(=O)(O)O)c1)C(=O)O [Compound I-32-CoA, 6-[3-(5-Carboxy-5-methylhexyl)-phenyl]-2,2-dimethylhexanoic acid Coenzyme A Ester] | – | – | – | – | – | – | 5.07e-06 M and 5e-06 M and 6.03e-06 M | 17.17% and 15.90% | 70.02% and 66.13% | 23.69% and 22.51% | 13.04% and 11.95% | 35.98% and 34.99% | 3.21% and 1.59% |
